Results as given in ChEMBL document CHEMBL3745592, “Synthesis of novel coumarin appended bis(formylpyrazole) derivatives: Studies on their antimicrobial and antioxidant activities” (Bioorg Med Chem Lett, 2016).
Converted amounts (≈) assume the structure as drawn.

Key:
[1] = Antioxidant activity assessed as DPPH free radical scavenging activity at 25 ug/ml after 20 mins by UV-vis spectrophotometry analysis; format: physicochemical
Candida albicans = experiment: Antifungal activity against Candida albicans assessed as growth inhibition incubated for 72 hrs at 37 degC by broth dilution method; format: functional
Pseudomonas aeruginosa = experiment: Antibacterial activity against Pseudomonas aeruginosa assessed as growth inhibition incubated for 24 hrs at 37 degC by broth dilution method; format: functional
[2] = Antioxidant activity assessed as hydroxyl radical scavenging activity at 100 ug/ml after 60 mins; format: physicochemical; details: 1 h
[3] = Antioxidant activity assessed as DPPH free radical scavenging activity at 100 ug/ml after 20 mins by UV-vis spectrophotometry analysis; format: physicochemical
Aspergillus flavus = experiment: Antifungal activity against Aspergillus flavus assessed as growth inhibition incubated for 72 hrs at 37 degC by broth dilution method; format: functional
Staphylococcus aureus = experiment: Antibacterial activity against Staphylococcus aureus assessed as growth inhibition incubated for 24 hrs at 37 degC by broth dilution method; format: functional
[4] = Antioxidant activity assessed as DPPH free radical scavenging activity at 50 ug/ml after 20 mins by UV-vis spectrophotometry analysis; format: physicochemical
Aspergillus niger = experiment: Antifungal activity against Aspergillus niger assessed as growth inhibition incubated for 72 hrs at 37 degC by broth dilution method; format: functional
[5] = Antioxidant activity assessed as hydroxyl radical scavenging activity at 75 ug/ml after 60 mins; format: physicochemical; details: 1 h
Escherichia coli = experiment: Antibacterial activity against Escherichia coli assessed as growth inhibition incubated for 24 hrs at 37 degC by broth dilution method; format: functional
[6] = Antioxidant activity assessed as DPPH free radical scavenging activity at 75 ug/ml after 20 mins by UV-vis spectrophotometry analysis; format: physicochemical

Compound	inhibition (INH) [1]	MIC90 (Candida albicans)	MIC90 (Pseudomonas aeruginosa)	inhibition (INH) [2]	inhibition (INH) [3]	MIC90 (Aspergillus flavus)	MIC90 (Staphylococcus aureus)	inhibition (INH) [4]	MIC90 (Aspergillus niger)	inhibition (INH) [5]	MIC90 (Escherichia coli)	inhibition (INH) [6]
C/C(=N\Nc1ccc(F)cc1)c1cc2c(C)cc(=O)oc2c(/C(C)=N/Nc2ccc(F)cc2)c1O	8.49%	75 µg/mL (≈ 157 µM)	50 µg/mL (≈ 105 µM)	26.6%	17.45%	75 µg/mL (≈ 157 µM)	75 µg/mL (≈ 157 µM)	11.69%	50 µg/mL (≈ 105 µM)	17.33%	50 µg/mL (≈ 105 µM)	14.01%
Cc1cc(=O)oc2c(-c3nn(-c4ccc(F)cc4)cc3C=O)c(O)c(-c3nn(-c4ccc(F)cc4)cc3C=O)cc12	11.62%	100 µg/mL (≈ 181 µM)	50 µg/mL (≈ 90.5 µM)	29.47%	19.44%	75 µg/mL (≈ 136 µM)	75 µg/mL (≈ 136 µM)	14.93%	75 µg/mL (≈ 136 µM)	21.27%	75 µg/mL (≈ 136 µM)	17.69%
OC(Cn1cncn1)(Cn1cncn1)c1ccc(F)cc1F [FLUCONAZOLE]	–	50 µg/mL (≈ 163 µM)	–	–	–	25 µg/mL (≈ 81.6 µM)	–	–	25 µg/mL (≈ 81.6 µM)	–	–	–
O=C1O[C@H]([C@@H](O)CO)C(O)=C1O [ASCORBIC ACID]	15.08%	–	–	–	24.25%	–	–	16.87%	–	–	–	21.98%
Cc1cc(=O)oc2c(-c3nn(-c4ccc(Cl)cc4)cc3C=O)c(O)c(-c3nn(-c4ccc(Cl)cc4)cc3C=O)cc12	15.58%	100 µg/mL (≈ 171 µM)	25 µg/mL (≈ 42.7 µM)	32.07%	23.61%	50 µg/mL (≈ 85.4 µM)	50 µg/mL (≈ 85.4 µM)	17.55%	50 µg/mL (≈ 85.4 µM)	24.77%	25 µg/mL (≈ 42.7 µM)	20.63%
Cc1ccc(-n2cc(C=O)c(-c3cc4c(C)cc(=O)oc4c(-c4nn(-c5ccc(C)cc5)cc4C=O)c3O)n2)cc1	16%	50 µg/mL (≈ 91.8 µM)	25 µg/mL (≈ 45.9 µM)	31.48%	24.56%	75 µg/mL (≈ 138 µM)	75 µg/mL (≈ 138 µM)	17.28%	50 µg/mL (≈ 91.8 µM)	27.07%	50 µg/mL (≈ 91.8 µM)	20.75%
C/C(=N\Nc1ccc(C)cc1)c1cc2c(C)cc(=O)oc2c(/C(C)=N/Nc2ccc(C)cc2)c1O	14.29%	50 µg/mL (≈ 107 µM)	25 µg/mL (≈ 53.4 µM)	30.52%	22.45%	25 µg/mL (≈ 53.4 µM)	25 µg/mL (≈ 53.4 µM)	16.65%	50 µg/mL (≈ 107 µM)	25.54%	25 µg/mL (≈ 53.4 µM)	19.43%
O=C(O)c1cn(C2CC2)c2cc(N3CCNCC3)c(F)cc2c1=O [CIPROFLOXACIN]	–	–	12.5 µg/mL (≈ 37.7 µM)	–	–	–	25 µg/mL (≈ 75.4 µM)	–	–	–	25 µg/mL (≈ 75.4 µM)	–
